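1) Cells in 96-well plates. 2) Compound, 48 h, 5 concentrations. 3) Linear interpolation between surrounding doses. 4) Unreached endpoint = highest concentration. GI50 is the concentration that inhibits growth by half.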 The source made the active and inactive calls. No stated cut-off is given here; in the data, active = GI50 up to about 1.1 µM and inactive = higher.
Legend:
Experiment in all cases: NCI-60 cell line screen, 48 h
KM-20L2 = test system: KM-20L2
XF498 = test system: XF498
DMS-114 = test system: DMS-114
M19-MEL = test system: M19-MEL
HOP-18 = test system: HOP-18
LXFL 529 = test system: LXFL 529
DMS-273 = test system: DMS-273
SNB-78 = test system: SNB-78
RXF 631 = test system: RXF 631

SMILES | GI50 (KM-20L2) | GI50 (XF498) | GI50 (DMS-114) | GI50 (M19-MEL) | GI50 (HOP-18) | GI50 (LXFL 529) | GI50 (DMS-273) | GI50 (SNB-78) | GI50 (RXF 631)
Oc1c(Cl)c2nccnc2c2ccccc12 | > 100 µM (inactive) | > 100 µM (inactive) | > 100 µM (inactive) | > 100 µM (inactive) | 36.9 µM (inactive) | > 100 µM (inactive) | > 100 µM (inactive) | > 100 µM (inactive) | 
Cc1cc(Cc2cc(C)c(NC(=O)C(=O)C3C(=O)NC(=S)NC3=O)c(C(C)C)c2)cc(C(C)C)c1NC(=O)C(=O)C1C(=O)NC(=S)NC1=O | > 100 µM (inactive) |  | > 100 µM (inactive) | > 100 µM (inactive) | > 100 µM (inactive) | > 100 µM (inactive) | > 100 µM (inactive) | > 100 µM (inactive) | > 100 µM (inactive)
[O-][Cl+3]([O-])([O-])O.c1ccc(/N=c2\snc(-c3ccccc3)s2)cc1 | > 100 µM (inactive) |  | > 100 µM (inactive) | > 100 µM (inactive) | > 100 µM (inactive) | > 100 µM (inactive) | > 100 µM (inactive) | > 100 µM (inactive) | 
O=C1c2c(O)cccc2C(C(=O)CCCCC(=O)C2c3cccc(O)c3C(=O)c3c(O)cccc32)c2cccc(O)c21 | 0.918 µM (active) | 0.501 µM (active) | 0.522 µM (active) |  | 0.652 µM (active) | 0.441 µM (active) | 1.63 µM (inactive) | 0.55 µM (active) | 0.78 µM (active)
CC1=C(C(=O)Nc2ccccc2C)C(c2ccccc2C)C(C(=O)Nc2ccccc2C)=C(C)N1 | 20.9 µM (inactive) | 18.7 µM (inactive) | 26.6 µM (inactive) | 21.7 µM (inactive) | 18.4 µM (inactive) | > 10 µM (inactive) |  | 33 µM (inactive) | 26.1 µM (inactive)
Cc1[nH]c2ccccc2c1C(=O)CC1(O)C(=O)Nc2c(Cl)cc(Cl)cc21 (configuration not stated) |  | 18.2 µM (inactive) | 24.3 µM (inactive) | 9.31 µM (inactive) | 25.6 µM (inactive) | 16.4 µM (inactive) | 49.1 µM (inactive) | 40.7 µM (inactive) | 29.4 µM (inactive)
C[N+]1=c2c3cccc4cccc(c(=O)n2CCC1)c43 | 20 µM (inactive) | 18.6 µM (inactive) | 20.6 µM (inactive) | 17.9 µM (inactive) | 53.8 µM (inactive) | 17.6 µM (inactive) | 24.4 µM (inactive) | 29 µM (inactive) | 
Cn1cc(C(=O)C[n+]2ccccc2)c2ccccc21 | 33 µM (inactive) | 86.9 µM (inactive) | 49.7 µM (inactive) | 59.8 µM (inactive) |  | > 10 µM (inactive) | 42.3 µM (inactive) |  | 
O=C(Cc1ccccc1)NN1C(=O)C(Cl)C1c1ccccc1O (configuration not stated) | 4.57 µM (inactive) | 43.6 µM (inactive) | 4.46 µM (inactive) | 19.3 µM (inactive) | 3.82 µM (inactive) | 24.4 µM (inactive) | 20.5 µM (inactive) | 50.7 µM (inactive) | 
N#CN1CC[C@@H]2CC3(CCC2C1)OCCO3 (some centres not stated) | > 100 µM (inactive) | > 100 µM (inactive) | > 100 µM (inactive) | > 100 µM (inactive) | > 100 µM (inactive) | > 100 µM (inactive) | > 100 µM (inactive) | > 100 µM (inactive) | > 100 µM (inactive)
O=C1NC(=S)NC(=O)C1=Cc1ccc[nH]1 | 5.94 µM (inactive) | 17.7 µM (inactive) | 10.8 µM (inactive) | 13.4 µM (inactive) | 36.4 µM (inactive) | 10.3 µM (inactive) | 3.79 µM (inactive) | 19.4 µM (inactive) | 
COC(=O)c1c(O)ccc(O)c1C(C(C)=O)C(C)=O |  | > 100 µM (inactive) | > 100 µM (inactive) | > 100 µM (inactive) |  | > 100 µM (inactive) | > 100 µM (inactive) | > 100 µM (inactive) | 
Cc1nc2c(o1)C(=O)c1ccccc1/C2=N\c1ccccc1 | 20.5 µM (inactive) | 2.86 µM (inactive) | 1.48 µM (inactive) | 1.82 µM (inactive) | 1.85 µM (inactive) | 3.23 µM (inactive) | 2.49 µM (inactive) | 3.22 µM (inactive) | > 10 µM (inactive)
CCOC(=O)c1[nH]c(CN(C)Cc2[nH]c(C(=O)OCC)c(C)c2C(=O)OCc2ccccc2)c(C(=O)OCc2ccccc2)c1C | 3.04 µM (inactive) |  | 12.7 µM (inactive) |  | > 100 µM (inactive) | 13.1 µM (inactive) | 10 µM (inactive) | > 100 µM (inactive) | 4.11 µM (inactive)
C[N+]12c3ccccc3O[B-]1(c1ccccc1)Oc1ccccc12 (configuration not stated) |  |  | 17.6 µM (inactive) |  | 42.9 µM (inactive) | 28.4 µM (inactive) | 29.2 µM (inactive) | 47 µM (inactive) | 
CC[C@@]1(O)C(=O)OCc2c1cc1n(c2=O)Cc2c-1nc1ccccc1c2Cl | 0.216 µM (active) | 0.0767 µM (active) | < 0.0104 µM (active) | 0.08 µM (active) | 0.0598 µM (active) | 0.935 µM (active) | < 0.01 µM (active) | 2.65 µM (inactive) | 
C=C(C[N+](C)(C)C)N/N=C/c1oc(-c2ccc(OC)c(OC)c2)c(-c2ccc(OC)c(OC)c2)c1[N+](=O)[O-] | 31.7 µM (inactive) | 23.7 µM (inactive) |  | 15.5 µM (inactive) | 22.1 µM (inactive) | 22.9 µM (inactive) |  | 36.4 µM (inactive) | 
O=C1NC(=O)c2c1n(Cc1ccccc1)c(=O)n2Cc1ccccc1 | > 100 µM (inactive) |  | > 100 µM (inactive) | > 100 µM (inactive) | > 100 µM (inactive) | > 100 µM (inactive) | > 100 µM (inactive) | > 100 µM (inactive) | 
O=C(c1ccccc1)C1OC12C(=O)Nc1c(Cl)cc(Cl)cc12 (configuration not stated) | 72.1 µM (inactive) | 10.7 µM (inactive) | 30.1 µM (inactive) | 27 µM (inactive) | > 54.7 µM (inactive) | 23.6 µM (inactive) | 15.9 µM (inactive) | > 50.5 µM (inactive) | 27 µM (inactive)
Cc1ccc(S(=O)(=O)Nc2cccc(C)c2C)cc1 |  | < 0.01 µM (active) | 28.8 µM (inactive) | 67.5 µM (inactive) | > 100 µM (inactive) | 56.2 µM (inactive) | 45.6 µM (inactive) | 62.1 µM (inactive) | 66.1 µM (inactive)
NC1C2(CCCCCC2)NC(=O)C12CCCCCC2 (configuration not stated) |  | > 100 µM (inactive) | > 100 µM (inactive) |  | > 100 µM (inactive) | > 100 µM (inactive) | > 100 µM (inactive) | > 100 µM (inactive) | > 100 µM (inactive)
Cc1cccc(-c2cc(=O)c3cc(C)c(C)c(C(=O)O)c3o2)c1 | > 100 µM (inactive) | > 100 µM (inactive) | > 100 µM (inactive) | > 100 µM (inactive) | > 100 µM (inactive) | > 100 µM (inactive) | > 100 µM (inactive) | > 100 µM (inactive) | > 100 µM (inactive)
COc1ccc2nc3cc(Cl)ccc3c(SCC(=O)Nc3ccccc3-c3ccccc3NC(=O)CSc3c4ccc(Cl)cc4nc4ccc(OC)cc34)c2c1 | > 100 µM (inactive) | > 100 µM (inactive) | > 100 µM (inactive) | > 100 µM (inactive) | > 100 µM (inactive) | > 100 µM (inactive) | > 100 µM (inactive) | > 100 µM (inactive) | 
Cc1noc2c1C(=O)CCC2 | > 100 µM (inactive) | > 100 µM (inactive) | > 100 µM (inactive) | > 100 µM (inactive) | > 100 µM (inactive) | > 100 µM (inactive) |  | > 100 µM (inactive) | 
